# Data from patent US20250382332A1, “NOVEL ALPHA-FACTOR BASED PEPTIDES WITH ANTIFUNGAL ACTIVITY” (INVAIO SCIENCES, INC., priority 2024, published 2025).
# Peptide text beside a SMILES is read from it.
# System: Botrytis cinerea (B05.10)
# Assay: Resazurin antifungal assay of 180 alpha-factor peptide variants towards Botrytis (Example 2)
# Assay type: cell-based
# Details: % inhibition of fungal growth, Botrytis conidia, resazurin; for Inhibition at 10 μM: peptide 10 μM; for Inhibition at 15 μM: peptide 15 μM; for Inhibition at 20 μM: peptide 20 μM; for Inhibition at 50 μM: peptide 50 μM; for Inhibition at 100 μM: peptide 100 μM
# Summary of the method: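 B. cinerea B05.10 conidia (5000/well) were exposed to peptides at 100, 50, 20, 15 and 10 μM final for 24 h at 20° C. Resazurin was then added and fluorescence read at 570/620 nm. Percent growth inhibition was calculated against conidia-only wells, with four technical replicates.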
SMILES,Inhibition at 10 μM,Inhibition at 15 μM,Inhibition at 20 μM,Inhibition at 50 μM,Inhibition at 100 μM
CSCC[C@H](NC(=O)[C@@H]1CCCN1C(=O)[C@H](CCC(N)=O)NC(=O)CNC(=O)[C@@H]1CCCN1C(=O)[C@H](CCCCN)NC(=O)[C@H](CC(C)C)NC(=O)[C@H](CCCNC(=N)N)NC(=O)[C@H](CC(C)C)NC(=O)[C@@H](NC(=O)[C@H](Cc1c[nH]cn1)NC(=O)[C@@H](N)CCCCN)[C@@H](C)O)C(=O)N[C@@H](Cc1ccc(O)cc1)C(=O)O [compound 83] (H-KHTLRLKPGQPMY-OH; N-terminus and C-terminus assumed),<90%,<90%,99.92%,100%,100%
CSCC[C@H](NC(=O)[C@H](Cc1c[nH]cn1)NC(=O)[C@@H](N)CCCCN)C(=O)N[C@@H](CC(C)C)C(=O)N[C@@H](CCCNC(=N)N)C(=O)N[C@@H](Cc1ccccc1)C(=O)N[C@@H](CCCCN)C(=O)N1CCC[C@H]1C(=O)NCC(=O)N[C@@H](CCC(N)=O)C(=O)N1CCC[C@H]1C(=O)N[C@@H](CCSC)C(=O)N[C@@H](Cc1ccc(O)cc1)C(=O)O [compound 84] (H-KHMLRFKPGQPMY-OH; N-terminus and C-terminus assumed),<90%,<90%,97.08%,100%,100%
CSCC[C@H](NC(=O)[C@@H]1CCCN1C(=O)[C@H](CCC(=O)O)NC(=O)CNC(=O)[C@@H]1CCCN1C(=O)[C@H](CCCCN)NC(=O)[C@H](Cc1ccccc1)NC(=O)[C@H](CCCCN)NC(=O)[C@H](CC(C)C)NC(=O)[C@H](Cc1ccccc1)NC(=O)[C@H](Cc1c[nH]cn1)NC(=O)[C@@H](N)Cc1c[nH]c2ccccc12)C(=O)N[C@@H](Cc1ccc(O)cc1)C(=O)O [compound 85] (H-WHFLKFKPGEPMY-OH; N-terminus and C-terminus assumed),<90%,–,<90%,100%,100%
CC[C@H](C)[C@H](NC(=O)[C@H](CCCCN)NC(=O)[C@H](CC(C)C)NC(=O)[C@H](Cc1ccccc1)NC(=O)[C@H](Cc1c[nH]cn1)NC(=O)[C@@H](N)CCCCN)C(=O)N[C@@H](CCCCN)C(=O)N1CCC[C@H]1C(=O)NCC(=O)N[C@@H](CCC(N)=O)C(=O)N1CCC[C@H]1C(=O)N[C@@H](CCSC)C(=O)N[C@@H](Cc1ccc(O)cc1)C(=O)O [compound 86] (H-KHFLKIKPGQPMY-OH; N-terminus and C-terminus assumed),<90%,<90%,99.49%,100%,100%
CSCC[C@H](NC(=O)[C@@H]1CCCN1C(=O)[C@H](CCC(N)=O)NC(=O)CNC(=O)[C@@H]1CCCN1C(=O)[C@H](CCCCN)NC(=O)[C@H](Cc1ccccc1)NC(=O)[C@H](CCCCN)NC(=O)[C@H](CC(C)C)NC(=O)[C@@H](NC(=O)[C@H](Cc1c[nH]cn1)NC(=O)[C@@H](N)CCCCN)C(C)C)C(=O)N[C@@H](Cc1ccc(O)cc1)C(=O)O [compound 87] (H-KHVLKFKPGQPMY-OH; N-terminus and C-terminus assumed),<90%,<90%,98.89%,100%,100%
CSCC[C@H](NC(=O)[C@@H]1CCCN1C(=O)[C@H](CCC(N)=O)NC(=O)CNC(=O)[C@@H]1CCCN1C(=O)[C@H](CCCCN)NC(=O)[C@H](CC(C)C)NC(=O)[C@H](CCCNC(=N)N)NC(=O)[C@H](CC(C)C)NC(=O)[C@H](CC(C)C)NC(=O)[C@H](Cc1c[nH]cn1)NC(=O)[C@@H](N)CCCCN)C(=O)N[C@@H](Cc1ccc(O)cc1)C(=O)O [compound 88] (H-KHLLRLKPGQPMY-OH; N-terminus and C-terminus assumed),<90%,–,<90%,99.75%,100%
CC[C@H](C)[C@H](NC(=O)[C@H](CCCCN)NC(=O)[C@H](Cc1ccccc1)NC(=O)[C@H](CCC(=O)O)NC(=O)[C@H](CC(C)C)NC(=O)[C@H](CO)NC(=O)[C@H](Cc1c[nH]cn1)NC(=O)[C@@H](N)Cc1c[nH]c2ccccc12)C(=O)NCC(=O)N[C@@H](CCC(N)=O)C(=O)NCC(=O)N[C@@H](CCSC)C(=O)N[C@@H](Cc1ccc(O)cc1)C(=O)O [compound 89] (H-WHSLEFKIGQGMY-OH; N-terminus and C-terminus assumed),<90%,–,<90%,99.55%,100%
CC[C@H](C)[C@H](NC(=O)[C@H](CCC(N)=O)NC(=O)[C@H](CC(C)C)NC(=O)[C@H](Cc1ccccc1)NC(=O)[C@H](Cc1c[nH]cn1)NC(=O)[C@@H](N)Cc1c[nH]c2ccccc12)C(=O)N[C@@H](CCCCN)C(=O)N1CCC[C@H]1C(=O)NCC(=O)N[C@@H](CCC(N)=O)C(=O)NCC(=O)N[C@@H](CCSC)C(=O)N[C@@H](Cc1ccc(O)cc1)C(=O)O [compound 90] (H-WHFLQIKPGQGMY-OH; N-terminus and C-terminus assumed),<90%,–,<90%,99.27%,100%
CSCC[C@H](NC(=O)[C@@H]1CCCN1C(=O)[C@H](CCC(N)=O)NC(=O)CNC(=O)[C@H](CC(N)=O)NC(=O)[C@H](CCCCN)NC(=O)[C@H](CC(C)C)NC(=O)[C@H](CCCCN)NC(=O)[C@H](CC(C)C)NC(=O)[C@H](Cc1c[nH]c2ccccc12)NC(=O)[C@H](CCC(N)=O)NC(=O)[C@@H](N)CCCCN)C(=O)N[C@@H](Cc1ccc(O)cc1)C(=O)O [compound 91] (H-KQWLKLKNGQPMY-OH; N-terminus and C-terminus assumed),<90%,–,<90%,98.66%,100%
CSCC[C@H](NC(=O)[C@@H]1CCCN1C(=O)[C@H](CCC(N)=O)NC(=O)CNC(=O)[C@@H]1CCCN1C(=O)[C@H](CCCCN)NC(=O)[C@H](Cc1ccccc1)NC(=O)[C@H](CCCNC(=N)N)NC(=O)[C@H](CC(C)C)NC(=O)[C@@H](NC(=O)[C@H](Cc1c[nH]cn1)NC(=O)[C@@H](N)Cc1c[nH]c2ccccc12)[C@@H](C)O)C(=O)N[C@@H](Cc1ccc(O)cc1)C(=O)O [compound 92] (H-WHTLRFKPGQPMY-OH; N-terminus and C-terminus assumed),<90%,–,<90%,98.44%,98.95%
CSCC[C@H](NC(=O)[C@@H]1CCCN1C(=O)[C@H](CCC(N)=O)NC(=O)CNC(=O)[C@H](CCCNC(=N)N)NC(=O)[C@H](CCCCN)NC(=O)[C@H](CC(C)C)NC(=O)[C@H](CCC(N)=O)NC(=O)[C@H](CC(C)C)NC(=O)[C@@H](NC(=O)[C@H](Cc1c[nH]cn1)NC(=O)[C@@H](N)CCCCN)[C@@H](C)O)C(=O)N[C@@H](Cc1ccc(O)cc1)C(=O)O [compound 93] (H-KHTLQLKRGQPMY-OH; N-terminus and C-terminus assumed),<90%,–,<90%,97.77%,100%
CSCC[C@H](NC(=O)[C@@H]1CCCN1C(=O)[C@H](CCC(N)=O)NC(=O)CNC(=O)[C@@H]1CCCN1C(=O)[C@H](CCCCN)NC(=O)[C@H](Cc1ccccc1)NC(=O)[C@H](CO)NC(=O)[C@H](CC(C)C)NC(=O)[C@H](Cc1ccc(O)cc1)NC(=O)[C@H](Cc1c[nH]cn1)NC(=O)[C@@H](N)CCCCN)C(=O)N[C@@H](Cc1ccc(O)cc1)C(=O)O [compound 94] (H-KHYLSFKPGQPMY-OH; N-terminus and C-terminus assumed),<90%,–,<90%,97.32%,100%
CSCC[C@H](NC(=O)[C@@H]1CCCN1C(=O)[C@H](CCC(N)=O)NC(=O)CNC(=O)[C@@H]1CCCN1C(=O)[C@H](CCCCN)NC(=O)[C@H](Cc1ccccc1)NC(=O)[C@@H](NC(=O)[C@H](CC(C)C)NC(=O)[C@H](CC(C)C)NC(=O)[C@H](Cc1c[nH]cn1)NC(=O)[C@@H](N)CCCCN)[C@@H](C)O)C(=O)N[C@@H](Cc1ccc(O)cc1)C(=O)O [compound 95] (H-KHLLTFKPGQPMY-OH; N-terminus and C-terminus assumed),<90%,–,<90%,97.12%,99.99%
CSCC[C@H](NC(=O)[C@@H]1CCCN1C(=O)[C@H](CCC(N)=O)NC(=O)CNC(=O)[C@@H]1CCCN1C(=O)[C@H](CCCCN)NC(=O)[C@H](CC(C)C)NC(=O)[C@@H](NC(=O)[C@H](CC(C)C)NC(=O)[C@H](Cc1ccccc1)NC(=O)[C@H](Cc1c[nH]cn1)NC(=O)[C@@H](N)CCCCN)[C@@H](C)O)C(=O)N[C@@H](Cc1ccc(O)cc1)C(=O)O [compound 96] (H-KHFLTLKPGQPMY-OH; N-terminus and C-terminus assumed),<90%,–,<90%,95.86%,99.87%
CSCC[C@H](NC(=O)[C@@H]1CCCN1C(=O)[C@H](C)NC(=O)CNC(=O)[C@@H]1CCCN1C(=O)[C@H](CCCNC(=N)N)NC(=O)[C@H](Cc1ccccc1)NC(=O)[C@H](CCC(N)=O)NC(=O)[C@@H](NC(=O)[C@H](Cc1c[nH]c2ccccc12)NC(=O)[C@H](Cc1c[nH]cn1)NC(=O)[C@@H](N)Cc1c[nH]c2ccccc12)C(C)C)C(=O)N[C@@H](Cc1ccc(O)cc1)C(=O)O [compound 97] (H-WHWVQFRPGAPMY-OH; N-terminus and C-terminus assumed),<90%,–,<90%,95.75%,100%
